Results as given in patent publication US6541237B1, “A-1,4-glucan lyase and its use in the production of 1.5-androfructose” (Danisco A/S, priority 1994, dated 2003).

What was measured:
α-1,4-glucan lyase [1] = assay: Reversible and irreversible inhibitors of the lyase; assay type: biochemical, Gracilariopsis lemaneiformis; settings: for decrease of lyase activity (inhibition): 0.1 M inhibitor; for inhibition (second, untitled table): lyase not stated
α-1,4-glucan lyase [2] = assay: Degradation studies: AF released by the lyase from various substrates; assay type: biochemical, Gracilariopsis lemaneiformis; settings: for AF released: substrate 10 mg/ml, 10 mM HOAc-NaOAc pH 3.8, 40 min at 45° C., 100 ul
Protocol: Reaction conditions: The reaction mixture contained 10 mM of HOAc-NaOAc (pH 3.8). The substrate concentration was 10 mg/ml. The final volume was 100 ul after the addition of lyase and water. The reaction time was 40 min at 45° C.

α-1,4-glucan lyase [3] = assay: Substrate specificity for oligosaccharides by Dionex HPLC; assay type: biochemical; settings: 8 mg/ml substrate, 0.1M MES pH 6.3, 60 min at 30° C.
Protocol: The specificity of α-1,4-glucan lyase for different oligosaccharides was tested. […] The oligosaccharides were dissolved in H2O at a concentration of 8 mg/ml. The enzyme assay contained 150 μl substrate G2/G3/G4/G5/G6/G7, 120 μl 0.1M MES pH 6.3 and 30 μl purified enzyme. The reaction mixture was incubated for 60 min at 30° C. Afterwards the reaction was stopped by boiling for 3 min and 900 μl absolute ethanol was added for precipitation. After centrifugation at 20.000×g for 5 min at 4° C. the supernatant was transferred to a new eppendorf tube and lyophilized.
The freeze-dried samples were dissolved in 1000 μl H2O and were filtrated through a 0.22 μm Millipore filter before 25 μl of the sample was loaded on the Dionex HPLC.
Analyses were performed on a Dionex 4500i chromatography system consisting of a GPM-2 pump and a PED detector which was used in pulse-amperometric detection mode. The anion exchange columns were a CarboPac PA-100 (4×250 mm) and a CarboPac PA-100 guard column (3×25 mm) from Dionex. The eluent were 200 mM sodium hydroxide (A), 500 mM sodium acetate (B) and 18 M ohm de-ionized water (C). The pump was programmed in 2 different ways, method no. 1 and method no.

α-1,4-glucan lyase [4] = system: α-1,4-glucan lyase
α-1,4-glucan lyase [5] = assay: Effect of different reaction media upon production of AF by the lyase; assay type: biochemical, Gracilariopsis lemaneiformis; settings: reaction medium
Text: The production of AF using either pure water or 0.85% NaCl as reaction medium decreased the yield.

α-1,4-glucan lyase [6] = assay: Km of the lyase; assay type: biochemical, Gracilariopsis lemaneiformis; settings: substrate of the lyase
Target sequence in this assay (as listed by the source): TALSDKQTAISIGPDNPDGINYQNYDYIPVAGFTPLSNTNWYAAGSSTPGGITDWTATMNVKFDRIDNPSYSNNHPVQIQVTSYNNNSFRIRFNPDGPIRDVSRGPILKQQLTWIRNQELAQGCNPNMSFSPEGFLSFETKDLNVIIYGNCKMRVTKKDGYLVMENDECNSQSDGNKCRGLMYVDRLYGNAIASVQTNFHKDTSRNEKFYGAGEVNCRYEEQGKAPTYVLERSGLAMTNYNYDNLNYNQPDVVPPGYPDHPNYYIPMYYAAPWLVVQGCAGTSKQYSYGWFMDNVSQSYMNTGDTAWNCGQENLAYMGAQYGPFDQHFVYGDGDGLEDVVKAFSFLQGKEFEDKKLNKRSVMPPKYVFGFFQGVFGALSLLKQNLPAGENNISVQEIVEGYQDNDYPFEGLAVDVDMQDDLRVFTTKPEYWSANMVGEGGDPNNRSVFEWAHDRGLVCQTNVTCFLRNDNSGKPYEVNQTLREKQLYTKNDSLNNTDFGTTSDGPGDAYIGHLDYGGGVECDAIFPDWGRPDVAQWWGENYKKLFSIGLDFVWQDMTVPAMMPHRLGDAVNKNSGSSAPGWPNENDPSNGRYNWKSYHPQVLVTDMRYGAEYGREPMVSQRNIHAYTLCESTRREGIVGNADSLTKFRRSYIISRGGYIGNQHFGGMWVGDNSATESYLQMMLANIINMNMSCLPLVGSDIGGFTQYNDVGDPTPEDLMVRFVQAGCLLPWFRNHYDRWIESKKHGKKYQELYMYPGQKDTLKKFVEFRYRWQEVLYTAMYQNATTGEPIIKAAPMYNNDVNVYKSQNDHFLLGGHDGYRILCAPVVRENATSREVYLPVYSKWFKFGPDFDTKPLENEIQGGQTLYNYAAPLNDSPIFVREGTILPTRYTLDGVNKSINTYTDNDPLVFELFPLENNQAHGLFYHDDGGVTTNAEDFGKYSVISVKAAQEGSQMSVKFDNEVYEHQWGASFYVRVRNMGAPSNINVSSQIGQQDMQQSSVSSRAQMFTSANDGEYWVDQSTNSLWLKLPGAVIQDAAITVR

lyase and pullulanase = assay: Cooperation of pullulanase and lyase in the production of AF; assay type: biochemical; settings: 2% substrate, 30° C., 1 day
Protocol: The reaction mixture contained 0.3 ml 2% potato amylopectin (Sigma) in water or 0.3 ml 2% soluble starch (Merck), 2 μl lyase and 0.36 units pullulanase (BM) as indicated.
The reaction was carried out at 30° C. for 1 day. At the end of the reaction, samples were taken for AF and Glc analysis.

α-1,4-glucan lyase [7] = assay: Effect of substrate on the stability of the lyase; assay type: biochemical; settings: soluble and immobilized enzyme system
Target sequence in this assay (as listed by the source): as above

[8] = Isoelectric focusing of the α-1,4-glucan lyases; assay type: physicochemical; settings: isoelectrofocusing, pH gradient 3-9
Text: The relative migration rates were estimated from native PAGE on gels with 8-25% gradient; the pI values were estimated by isoelectrofocusing on gels with a pH gradient of 3-9.
FIG. 2. Isoelectric focusing of the α-1,4-glucan lyases on a gel with a pH gradient of pH 3 to pH 9. The gel was stained with PhastGel Blue R.

[9] = lyase added, pullulanase omitted
[10] = lyase omitted, pullulanase added

Molecule: OC[C@H]1O[C@H](O[C@H]2[C@H](O)[C@@H](O)C(O)O[C@@H]2CO)[C@H](O)[C@@H](O)[C@@H]1O (mixture of isomers) [Maltose]
- decrease of lyase activity (inhibition) (α-1,4-glucan lyase [1]; substrate amylopectin 1% (10 mg/ml)): 73.4%
- decrease of lyase activity (inhibition) (α-1,4-glucan lyase [1]; substrate amylopectin 2%): 67.2%
- decrease of lyase activity (inhibition) (α-1,4-glucan lyase [1]; substrate glycogen 1% (10 mg/ml)): 48.8%
- decrease of lyase activity (inhibition) (α-1,4-glucan lyase [1]; substrate glycogen 2%): 49.7%
- inhibition (second, untitled table) (α-1,4-glucan lyase [1]; substrate amylopectin (1%)): 80%
- inhibition (second, untitled table) (α-1,4-glucan lyase [1]; substrate glycogen (1%)): 57%
- activity of the lyase towards maltosaccharides (α-1,4-glucan lyase [2]; in words): low activity
- AF released (α-1,4-glucan lyase [2]): 657 nmol
- 1,5-anhydrofructose formation from substrate (α-1,4-glucan lyase [3]): almost no 1,5-anhydrofructose was formed

Molecule: O=C(O)CN(CCN(CC(=O)O)CC(=O)O)CC(=O)O [EDTA]
- effect on lyase activity (α-1,4-glucan lyase [4]; up to 20 mM in the reaction mixture): little effect

Molecule: [Cl-].[Na+] [NaCl]
- increase of AF yield (α-1,4-glucan lyase [4]; 0.85% (0.145 M) in the reaction mixture): up to 1 fold

Molecule: O [Water]
- AF yield (α-1,4-glucan lyase [5]; reaction time 1 day): 46 µmol
- AF yield (α-1,4-glucan lyase [5]; reaction time 3 days): 128 µmol
- AF yield (α-1,4-glucan lyase [5]; reaction time 8 days): 217 µmol

Molecule: Amylopectin
- AF released (α-1,4-glucan lyase [2]): 732 nmol
- Km (α-1,4-glucan lyase [6]): 3.76 mg/mL
- AF Yield (%) (lyase and pullulanase; [9]): 48.0%
- Glc Yield (%) (lyase and pullulanase; [9]): 0%
- AF Yield (%) (lyase and pullulanase; lyase and pullulanase added): 71.3%
- Glc Yield (%) (lyase and pullulanase; lyase and pullulanase added): 3.7%
- AF Yield (%) (lyase and pullulanase; [10]): 0%
- Glc Yield (%) (lyase and pullulanase; [10]): 0.33%
- effect on stability of the lyase (α-1,4-glucan lyase [7]): stabilizing effect

Molecule: Glycogen
- AF released (α-1,4-glucan lyase [2]): 592 nmol
- Km (α-1,4-glucan lyase [6]): 3.37 mg/mL

B1: MV-lyase: lyase isolated from the fungus Morchella vulgaris, ATCC (protein)
chain: MAGLSDPLNFCKAEDYYAAAKGWSGPQKIIRYDQTPPQGTKDPKSWHAVNLPFDDGTMCVVQFVRPCVWRVRYDPSVKTSDEYGDENTRTIVQDYMTTLVGNLDIFRGLTWVSTLEDSGEYYTFKSEVTAVDETERTRNKVGDGLKIYLWKNPFRIQVVRLLTPLVDPFPIPNVANATARVADKVVWQTSPKTFRKNLHPQHKMLKDTVLDIIKPGHGEYVGWGEMGGIEFMKEPTFMNYFNFDNMQYQQVYAQGALDSREPLYHSDPFYLDVNSNPEHKNITATFIDNYSQIAIDFGKTNSGYIKLGTRYGGIDCYGISADTVPEIVRLYTGLVGRSKLKPRYILGAHQACYGYQQESDLHAVVQQYRDTKFPLDGLHVDVDFQDNFRTFTTNPITFPNPKEMFTNLRNNGIKCSTNITPVISIRDRPNGYSTLNEGYDKKYFIMDDRYTEGTSGDPQNVRYSFYGGGNPVEVNPNDVWARPDFGDNYDFPTNFNCKDYPYHGGVSYGYGNGTPGYYPDLNREEVRIWWGLQYEYLFNMGLEFVWQDMTTPAIHSSYGDMKGLPTRLLVTADSVTNASEKKLAIESWALYSYNLHKATFHGLGRLESRKNKRNFILGRGSYAGAYRFAGLWTGDNASTWEFWKISVSQVLSLGLNGVCIAGSDTGGFEPARTEIGEEKYCSPELLIRWYTGSFLLPWLRNHYVKKDRKWFQEPYAYPKHLETHPELADQAWLYKSVLEICRYWVELRYSLIQLLYDCMFQNVVDGMPLARSMLLTDTEDTTFFNESQKFLDNQYMAGDDILVAPILHSRNEVPGENRDVYLPLFHTWYPSNLRPWDDQGVALGNPVEGGSVINYTARIVAPEDYNLFHNVVPVYIREGAIIPQIQVRQWIGEGGPNPIKFNIYPGKDKEYVTYLDDGVSRDSAPDDLPQYREAYEQAKVEGKDVQKQLAVIQGNKTNDFSASGIDKEAKGYHRKVSIKQESKDKTRTVTIEPKHNGYDPSKEVGNYYTIILWYAPGFDGSIVDVSQATVNIEGGVECEIFKNTGLHTVVVNVKEVIGTTKSVKITCTTA
- pI [8]: 4.4

B2: GLsc2-lyase: second lyase purified from Gracilariopsis lemaneiformis collected in Santa Cruz, Calif. (protein)
chain: TALSDKQTAISIGPDNPDGINYQNYDYIPVAGFTPLSNTNWYAAGSSTPGGITDWTATMNVKFDRIDNPSYSNNHPVQIQVTSYNNNSFRIRFNPDGPIRDVSRGPILKQQLTWIRNQELAQGCNPNMSFSPEGFLSFETKDLNVIIYGNCKMRVTKKDGYLVMENDECNSQSDGNKCRGLMYVDRLYGNAIASVQTNFHKDTSRNEKFYGAGEVNCRYEEQGKAPTYVLERSGLAMTNYNYDNLNYNQPDVVPPGYPDHPNYYIPMYYAAPWLVVQGCAGTSKQYSYGWFMDNVSQSYMNTGDTAWNCGQENLAYMGAQYGPFDQHFVYGDGDGLEDVVKAFSFLQGKEFEDKKLNKRSVMPPKYVFGFFQGVFGALSLLKQNLPAGENNISVQEIVEGYQDNDYPFEGLAVDVDMQDDLRVFTTKPEYWSANMVGEGGDPNNRSVFEWAHDRGLVCQTNVTCFLRNDNSGKPYEVNQTLREKQLYTKNDSLNNTDFGTTSDGPGDAYIGHLDYGGGVECDAIFPDWGRPDVAQWWGENYKKLFSIGLDFVWQDMTVPAMMPHRLGDAVNKNSGSSAPGWPNENDPSNGRYNWKSYHPQVLVTDMRYGAEYGREPMVSQRNIHAYTLCESTRREGIVGNADSLTKFRRSYIISRGGYIGNQHFGGMWVGDNSATESYLQMMLANIINMNMSCLPLVGSDIGGFTQYNDAGDPTPEDLMVRFVQAGCLLPWFRNHYDRWIESKKHGKKYQELYMYPGQKDTLKKFVEFRYRWQEVLYTAMYQNATTGEPIIKAAPMYNNDVNVYKSQNDHFLLGGHDGYRILCAPVVRENATSREVYLPVYSKWFKFGPDFDTKPLENEIQGGQTLYNYAAPLNDSPIFVREGTILPTRYTLDGVNKSINTYTDNDPLVFELFPLENNQAHGLFYHDDGGVTTNAEDFGKYSVISVKAAQEGSQMSVKFDNEVYEHQWGASFYVRVRNMGAPSNINVSSQIGQQDMQQSSVSSRAQMFTSANDGEYWVDQSTNSLWLKLPGAVIQDAAITVR
- pI [8]: 4.1
